Results on 36 molecules are retold here after patent US20090054501A1, “AZOLE COMPOUNDS USED AS TUBERCULOSTATIC AND LEISHMANICIDE AGENTS” (priority 2005, published 2009).

In brackets after ≈: the same amount, converted by molar mass. Several values for one entry are separate records, joined by “and”; a condition that tells them apart may be missing. Identical values can stand only once. Like-named read-outs stand apart in the source and are kept apart here.

Assay [1] relates to Mycobacterium tuberculosis H37Rv (ATCC-27294). The assay is described as follows: MIC by MABA (Microplate Alamar Blue Assay), in vitro antimicrobial activity. The assay is classed as cell-based. The following applies: for Inhibition (%): Table 2, M. tuberculosis H37Rv (ATCC 27294), concentration not given. For orientation: Resazurin is reduced to fluorescent resorufin, in cell work by metabolically active cells.

For assay [2], the system named is promastigote forms of Leishmania amazonensis. The experiment in a line: Leishmanicide evaluation in vitro, live parasites counted by fluorescence. It is filed as cell-based. The following applies: L. amazonensis promastigotes, read-out: Percentage of parasitic inhibition; for inhibition at 160 µg/mL: concentration 160 μg/mL; for inhibition at 10 µg/mL: concentration 10 μg/mL. The procedure: The evaluation of the leishmanicide activity of the type I and II 1,2,3-triazole derivatives was made through in vitro essays against promastigote forms of Leishmania amazonensis, and after the incubation with compounds, live parasites are counted by fluorescence, thus obtaining as a result, the percentage of inhibition of the compounds evaluated.
Essays were performed in triplicate using pentamidine as a positive pattern with a 160 μg/mL concentration.
The evaluation of the leishmanicide activity of type I (Formula XII) and II (Formula XIII) imidazole derivatives was performed through in vitro essays against promastigote forms of Leishmania amazonensis, and after the incubation with compounds, live parasites are counted by fluorescence, thus obtaining as a result the inhibition percentage of the evaluated compounds.
Essays were performed in triplicate using pentamidine as a positive pattern with a 160 μg/mL concentration, determining which compounds evaluated inhibited the parasite in lower concentrations and the percentage higher than the pattern. Table 6 lists the results obtained in the leishmanicide evaluation of derivatives 140a 148a 146a, 149a.

Setting [3] is: 1,2,3-triazole derivatives types I-III and rifampicin comparison pattern, M. tuberculosis H37Rv, MABA.
[4] abbreviates: Table 2, type I and II 1,2,3-triazoles, M. tuberculosis H37Rv (ATCC 27294), MABA.
Where [5] appears, read: Mycobacterium tuberculosis, Table 2, type I and II 1,2,3-triazoles, M. tuberculosis H37Rv (ATCC 27294), MABA, read-out: MIC.
Setting [6] is: Mycobacterium tuberculosis, 1,2,3-triazole derivatives types I-III and rifampicin comparison pattern, M. tuberculosis H37Rv, MABA, read-out: MIC.
[7] abbreviates: Mycobacterium tuberculosis, Table 4, type I (Formula XII) imidazole derivatives, read-out: MIC.
Where [8] appears, read: Mycobacterium tuberculosis, Table 5, type II (Formula XIII) imidazole derivatives, read-out: MIC.

As a reminder, the MIC is the lowest concentration that inhibits growth of the organism. Turning to `O=Cc1cn(-c2ccc(Cl)cc2)nn1` [114a, 4-carboxaldehyde-1-(4-chlorophenyl)-1H-1,2,3-triazole], the MIC in assay [1] (setting [3]) is 5 µg/mL and 5.0 µg/mL. Further, the “MIC (μg/mL)” value in assay [1] (setting [4]) is given as 5,0 μg/mL.

Take `O=Cc1cn(-c2ccc(Br)cc2)nn1` [114b, 4-carboxaldehyde-1-(4-bromophenyl)-1H-1,2,3-triazole]: in assay [1] (setting [3]), the MIC stood at 5.0 µg/mL (≈ 19.8 µM). Besides, in assay [1] (setting [4]), the “MIC (μg/mL)” value is 5,0 μg/mL.

As to `Cc1ccc(-n2cc(C=O)nn2)cc1` [114c, 4-carboxaldehyde-1-(4-methylphenyl)-1H-1,2,3-triazole], the MIC in assay [1] (setting [3]) came out at 2.5 µg/mL (≈ 13.4 µM). The “MIC (μg/mL)” value in assay [1] (setting [4]) is recorded as 2,5 μg/mL.

With `COc1ccc(-n2cc(C=O)nn2)cc1` [114d, 4-carboxaldehyde-1-(4-methoxyphenyl)-1H-1,2,3-triazole], the “MIC (μg/mL)” value in assay [1] (setting [4]) is given as 10,0 μg/mL.

Consider `COc1ccc(OC)c(-n2cc(C=O)nn2)c1` [114e, 4-carboxaldehyde-1-(2,5-dimethoxyphenyl)-1H-1,2,3-triazole], for which the “MIC (μg/mL)” value in assay [1] (setting [4]) is 80,0 μg/mL.

As usually defined, the inhibition is the percentage by which the read-out fell short of the control. Take `O=Cc1cn(-c2cccc(Cl)c2)nn1` [114f, 4-carboxaldehyde-1-(3-chlorophenyl)-1H-1,2,3-triazole]: the inhibition at 320 µg/mL in assay [2] (concentration 320 μg/mL) turned out to be 72%. In addition, the minimal inhibitory concentration (MIC) in assay [1] (setting [5]) was found to be 10 µg/mL (≈ 48.2 µM). Besides, the “Inhibition (%)” value in assay [1] worked out at 100%.

`O=Cc1cn(-c2cc(Cl)cc(Cl)c2)nn1` [114g, 4-carboxaldehyde-1-(3,5-dichlorophenyl)-1H-1,2,3-triazole]: the MIC in assay [1] (setting [3]) stood at 2.5 µg/mL (≈ 10.3 µM). The “MIC (μg/mL)” value in assay [1] (setting [4]) is reported as 2,5 μg/mL.

Take `N#Cc1cccc(-n2cc(C=O)nn2)c1` [114h, 4-carboxaldehyde-1-(3-cyanophenyl)-1H-1,2,3-triazole]: the “MIC (μg/mL)” value in assay [1] (setting [4]) is 20,0 μg/mL.

In assay [1] (setting [3]), `N#Cc1ccc(-n2cc(C=O)nn2)cc1` [114i, 4-carboxaldehyde-1-(4-cyanophenyl)-1H-1,2,3-triazole] registered an MIC of 5.0 µg/mL (≈ 25.2 µM). Moreover, the “MIC (μg/mL)” value in assay [1] (setting [4]) is given as 5,0 μg/mL.

`O=Cc1cn(-c2ccc([N+](=O)[O-])cc2)nn1` [114j, 4-carboxaldehyde-1-(4-nitrophenyl)-1H-1,2,3-triazole]: the inhibition at 160 µg/mL in assay [2] amounted to 11%. In assay [1] (setting [6]), the MIC came to 20 µg/mL (≈ 91.7 µM).

In the case of `COc1ccccc1-n1cc(C=O)nn1` [114l, 4-carboxaldehyde-1-(2-methoxyphenyl)-1H-1,2,3-triazole], the “MIC (μg/mL)” value in assay [1] (setting [4]) is listed as 40,0 μg/mL.

In the case of `COc1ccc(-n2cc(C=O)nn2)cc1OC` [114m, 4-carboxaldehyde 1-(3,4-dimethoxyphenyl)-1H-1,2,3-triazole], the “MIC (μg/mL)” value in assay [1] (setting [4]) is 80,0 μg/mL.

Molecule `FC(F)c1cn(-c2ccc(Cl)cc2)nn1` [121a, 1-(4-chlorophenyl)-4-difluoromethyl-1H-1,2,3-triazole] returned an MIC in assay [1] (Mycobacterium tuberculosis) of 40 µg/mL (≈ 174 µM). In assay [1] (setting [4]), the “MIC (μg/mL)” value is recorded as 40,0 μg/mL.

For `FC(F)c1cn(-c2ccc(Br)cc2)nn1` [121b, 1-(4-bromophenyl)-4-difluoromethyl-1H-1,2,3-triazole], the MIC in assay [1] (setting [5]) worked out at 20 µg/mL (≈ 73 µM). In assay [1], the “Inhibition (%)” value came out at 75%.

Consider `Cc1ccc(-n2cc(C(F)F)nn2)cc1` [121c, 1-(4-methylphenyl)-4-difluoromethyl-1H-1,2,3-triazole], for which the MIC in assay [1] (setting [5]) was found to be 40 µg/mL (≈ 191 µM). In addition, the “Inhibition (%)” value in assay [1] turned out to be 87%.

For the molecule `COc1ccc(-n2cc(C(F)F)nn2)cc1` [121d, 1-(4-methoxyphenyl)-4-difluoromethyl-1H-1,2,3-triazole], in assay [1] (setting [5]), the MIC was found to be 10 µg/mL (≈ 44.4 µM). Further, the “Inhibition (%)” value in assay [1] is recorded as 93%.

Consider `COc1ccc(OC)c(-n2cc(C(F)F)nn2)c1` [121e, 1-(2,5-dimethoxyphenyl)-4-difluoromethyl-1H-1,2,3-triazole], for which the MIC in assay [1] (setting [5]) came to 80 µg/mL (≈ 313 µM). The “Inhibition (%)” value in assay [1] amounted to 74%.

Regarding `FC(F)c1cn(-c2cccc(Cl)c2)nn1` [121f, 1-(3-chlorophenyl)-4-difluoromethyl-1H-1,2,3-triazole], the inhibition at 10 µg/mL in assay [2] is 93%. The MIC in assay [1] (setting [5]) stood at 80 µg/mL (≈ 348 µM). In addition, the “Inhibition (%)” value in assay [1] was determined as 54%.

Regarding `FC(F)c1cn(-c2cc(Cl)cc(Cl)c2)nn1` [121g, 1-(3,5-dichlorophenyl)-4-difluoromethyl-1H-1,2,3-triazole], the MIC in assay [1] (setting [5]) amounted to 80 µg/mL (≈ 303 µM). Moreover, the “Inhibition (%)” value in assay [1] amounted to 55%.

Consider `N#Cc1cccc(-n2cc(C(F)F)nn2)c1` [121h, 1-(3-cyanophenyl)-4-difluoromethyl-1H-1,2,3-triazole], for which, in assay [1] (setting [5]), the MIC is 80 µg/mL (≈ 363 µM).

Consider `N#Cc1ccc(-n2cc(C(F)F)nn2)cc1` [121i, 1-(4-cyanophenyl)-4-difluoromethyl-1H-1,2,3-triazole], for which, in assay [1] (setting [5]), the MIC turned out to be 20 µg/mL (≈ 90.8 µM).

For `O=[N+]([O-])c1ccc(-n2cc(C(F)F)nn2)cc1` [121j, 1-(4-nitrophenyl)-4-difluoromethyl-1H-1,2,3-triazole], in assay [1] (setting [6]), the MIC is 40 µg/mL (≈ 167 µM).

Turning to `COc1ccc(-n2cc(C(F)F)nn2)cc1OC` [121m, 1-(3,4-dimethoxyphenyl)-4-difluoromethyl-1H-1,2,3-triazole], the MIC in assay [1] (setting [5]) stood at 80 µg/mL (≈ 313 µM). Besides, the “Inhibition (%)” value in assay [1] is reported as 66%.

`CCOC(=O)c1ncn(-c2ccc(C)cc2)c1N(C(=O)c1ccc(F)cc1)C(=O)c1ccc(F)cc1` [140a]: the inhibition at 10 µg/mL in assay [2] is 79%.

On to `CCOC(=O)c1ncn(-c2ccc(C#N)cc2)c1N(C(=O)c1ccc(F)cc1)C(=O)c1ccc(F)cc1` [140b], for which the MIC in assay [1] (setting [7]) was determined as 1.2 µg/mL (≈ 2.4 µM).

For `CCOC(=O)c1ncn(-c2ccc(C)cc2)c1N(C(=O)c1ccccc1F)C(=O)c1ccccc1F` [146a], the inhibition at 80 µg/mL in assay [2] (concentration 80 μg/mL) is 75%. The MIC in assay [1] (setting [7]) was 3 µg/mL (≈ 6.13 µM).

Regarding `CCOC(=O)c1ncn(-c2ccc(Cl)cc2)c1N(C(=O)c1ccccc1F)C(=O)c1ccccc1F` [146c], the MIC in assay [1] (setting [7]) was 3 µg/mL (≈ 5.88 µM).

As for `CCOC(=O)c1ncn(-c2c(F)cccc2F)c1N(C(=O)c1ccccc1F)C(=O)c1ccccc1F` [146e], the MIC in assay [1] (setting [7]) came out at 3 µg/mL (≈ 5.87 µM).

On to `CCOC(=O)c1ncn(-c2ccc(C)cc2)c1NC(=O)c1ccc(F)cc1` [148a, Ester ethyl 5-[(4-fluorobenzoic)amino]-1-(4-methylphenyl)-1H-imidazole-4-carboxylate], for which, in assay [2], the inhibition at 10 µg/mL amounted to 90%. In addition, in assay [1] (setting [8]), the MIC was 3 µg/mL (≈ 8.17 µM).

For the molecule `CCOC(=O)c1ncn(-c2ccc(C)cc2)c1NC(=O)c1ccccc1F` [149a, Ester ethyl 5-[(2-fluorobenzoic)amino]-1-(4-methylphenyl)-1H-imidazole-4-carboxylate], in assay [2], the inhibition at 160 µg/mL amounted to 93%.

Consider `CCOC(=O)c1ncn(-c2ccc(C#N)cc2)c1NC(=O)c1ccccc1F` [149b, Ester ethyl 1-(4-cyanophenyl)-5-[(2-fluorobenzoic)amino]-1H-imidazole-4-carboxylate], for which the MIC in assay [1] (setting [8]) is 3 µg/mL (≈ 7.93 µM).

Consider `CCOC(=O)c1ncn(-c2ccc(Cl)cc2)c1NC(=O)c1ccccc1F` [149c, Ester ethyl 1-(4-chlorophenyl)-5-[(2-fluorobenzoic)amino]-1H-imidazole-4-carboxylate], for which the MIC in assay [1] (setting [8]) was 3 µg/mL (≈ 7.74 µM).

For the molecule `N=C(N)c1ccc(OCCCCCOc2ccc(C(=N)N)cc2)cc1` [Pentamidine, pentamidine, reference compound], the inhibition at 160 µg/mL in assay [2] is 53%.

With `CO[C@H]1/C=C/O[C@@]2(C)Oc3c(C)c(O)c4c(O)c(c(/C=N/N5CCN(C)CC5)c(O)c4c3C2=O)NC(=O)/C(C)=C\C=C\[C@H](C)[C@H](O)[C@@H](C)[C@@H](O)[C@@H](C)[C@H](OC(C)=O)[C@@H]1C` [Rifampicin, rifampicin, reference compound], the MIC in assay [1] (setting [3]) was determined as 1.0 µg/mL (≈ 1.22 µM); in assay [1] (Mycobacterium tuberculosis, imidazole derivatives and rifampicin comparison pattern, M. tuberculosis H37Rv, MABA, read-out: MIC) it was 1 µg/mL (≈ 1.22 µM). Besides, the “MIC (μg/mL)” value in assay [1] (setting [4]) is 1,0 μg/mL.

In turn, `Clc1ccc(/N=C/c2cn(-c3ccc(Cl)cc3)nn2)cc1` [compound 119, (E)-4-chloride-N-((1-(4-chlorophenyl)-1H-1,2,3-triazole-4-il)methylene) benzenamine] came in with an MIC in assay [1] (setting [3]) of 40 µg/mL (≈ 126 µM).

`Brc1ccc(/N=C/c2cn(-c3ccc(Br)cc3)nn2)cc1` [compound 120, (E)-4-bromo-N-((1-(4-bromophenyl)-1H-1,2,3-triazole-4-il)methylene) benzenamine] had an MIC in assay [1] (setting [3]) of 20 µg/mL (≈ 49.3 µM).
